In publication PMC7667029, “A Targeted Computational Screen of the SWEETLEAD Database Reveals FDA-Approved Compounds with Anti-Dengue Viral Activity” (mBio, 2020):
Entries after “also recorded” stand apart in the source; their conditions may differ. Where two headings read alike, the source gives them in different places.

What was measured:
DENV2 [1] = test: DENV2-infected AGB6 mouse model (splenic titer, survival); assay type: in vivo, AGB6 mice; conditions: for Splenic titer of dengue virus: AGB6 mice, 20 mg/kg pyrimethamine twice daily, oral gavage, 4 days postinfection, 20 mg/kg
dengue virus [2] = test: Initial screening of hit compounds for anti-dengue activity in tissue culture cells (Table S1); assay type: cell-based; conditions: viral titer relative to vehicle, tissue culture cell lines (BHK-21 48 hpi, Fig. S1; Huh7, Fig. 2C, 3C, 4C)
Experimental: For each query molecule, the top 500 compound hits obtained from the ROCS algorithm, as ranked by the Tanimoto combo score (see Data Set S1 in the supplemental material), were manually inspected for similar chemical and structural features. They were further prioritized by factors such as a lack of known side effects, commercial availability, and the intellectual property considerations that would be needed for worldwide, inexpensive use. Fourteen candidates were tested for their effects on dengue virus growth and toxicity in BHK-21 and Huh7 cells (see Table S1 and Fig. S1 in the supplemental material).
(§1) Supplementary file : TABLE S1 Summary of hits for lead compounds ARDP0006 and ST-148 screened for anti-dengue activity in tissue culture cells. Hit compounds were tested for anti-dengue activity and cell toxicity in tissue culture cell lines. Antiviral activity is summarized as follows: −, not antiviral, with titer greater than 50% of vehicle; +, weakly antiviral, with titer between 20 and 50% of vehicle; ++, moderately antiviral, with titer between 5 and 20% of vehicle; +++, highly antiviral, with titer less than 5% of vehicle. Toxicity at these doses is represented as follows: −, nontoxic, with cell viability greater than 80% of vehicle; +, mild toxicity, with cell viability between 60 and 80% of vehicle; +++, high toxicity, with cell viability less than 60% of vehicle. Data summarized here are depicted graphically in Fig. S1 and Fig. 2C, 3C, and [4]C. The Tanimoto combo score of each hit during initial ROCS screening is indicated; higher Tanimoto combo scores are indicative of increased chemical similarity. Download Table S1, PDF file, 0.04 MB.
Supplementary file : FIG S1 Initial screening of eliminated hit compounds for anti-dengue activity in tissue culture cells. BHK-21 cells were pretreated with the compounds at the indicated concentrations for 30 min, infected with dengue virus at an MOI of 0.1 PFU/cell for 1 h, and then posttreated with compound. At 48 hpi, cellular supernatant was collected and titered by plaque assay (purple). Cell viability in uninfected cells in the presence of compounds for 48 h was measured by WST assay (gray). Both viral titer and cell viability are normalized to their relative DMSO vehicle control, N = 2. Download FIG S1, PDF file, 0.06 MB.

DENV2 [3] = test: Antiviral activity in DENV2-infected Huh7 cells, infectious virus in supernatant by plaque assay; assay type: cell-based, dengue virus; conditions: for IC50: single infectious cycle, plaque assay at 24 hpi, read-out: IC50 of viral inhibition (infectious extracellular virus)
Experimental: FIG 2 Pyrimethamine inhibits dengue virus and NS2B/3 proteinase cleavage like ARDP0006. (A) Chemical structures and (B) ROCS overlay of ARDP0006 and pyrimethamine. […] Infectious virus in cell supernatant was quantified by plaque assay at 24 hpi (left y axis, black or red). Cell viability was measured at the same pyrimethamine doses 24 h posttreatment by WST-1 assay (right y axis, gray). Viral titer and cell viability were normalized to DMSO-treated samples. (D) Splenic titers of DENV2-infected AGB6 mice at 4 days postinfection. Mice were infected with 1 × 10^6 PFU DENV2 and treated twice daily with 20 mg/kg pyrimethamine (n = 9) or a vehicle control (n = 10). Data were analyzed by two-tailed unpaired t test. (E) Cleavage kinetics of NS2B/3/4A in the presence of 100 μM pyrimethamine. NS2B/3/4A protein was expressed in vitro and radiolabeled with [^35S]methionine, followed by treatment with 100 μM pyrimethamine or DMSO. Reaction samples were obtained over a 45-min time course, separated by SDS-PAGE, and the fraction of uncleaved proteinase precursor remaining was determined as described previously ([23]). Data from three replicates were fit using single-phase exponential decay functions, and P value was determined by comparing the rate constant, K, of the models using the extra sum-of-squares F test.
Dengue plaque assays were carried out on BHK-21 cells in 24-well plates. Cells were infected with 10-fold serial dilutions of virus, which were allowed to adsorb for at least 1 h at 37°C, and overlaid with standard cell culture medium plus 0.37% (w/vol) sodium bicarbonate and 0.8% (w/vol) Aquacide II (Millipore Calbiochem). After 7 days of incubation at 37°C, 5% CO2, cells were fixed with 5% (final) formaldehyde and stained with crystal violet for plaque enumeration.
Between 4 × 10^4 and 1 × 10^5 Huh7 cells per well were seeded into 24-well plates 1 day prior to infection. Compounds were diluted to 100× final concentration in DMSO and then further diluted 1:100 into appropriate cell culture. Unless otherwise indicated, tested compounds were present for 1 h pretreatment and readministered for posttreatment following infection. […] Media and drugs were removed from cells for infection at a multiplicity of infection (MOI) of 0.1 or 0.5 in 200 μl cold medium per well. After 1 h at 37°C, virus inoculum was removed by aspiration and replaced with medium plus compound or control. After 24-h total infection, infectious virus was quantified by plaque assay. Antiviral IC50 dose-response curves were fitted in GraphPad Prism 8 using the “[inhibitor] versus response, variable slope” function with a constraint “bottom > 0.” IC90 values are defined as the dose at which “y = (span × 0.1) + bottom.”

NS2B/3/4A = biological target: T1, NS2B/3/4A (Dengue virus type 2, UniProt P29990); test: In vitro translation-based proteinase cleavage assay of NS2B/3/4A precursor; assay type: biochemical; conditions: 100 μM pyrimethamine vs DMSO, 45-min time course, translation extracts
T1 construct: NS2B/3/4A protein was expressed in vitro and radiolabeled with [^35S]methionine; made in house; host or cells: rabbit reticulocyte lysate (TNT coupled T7; Promega), cell-free in vitro translation
Experimental: FIG 2 Pyrimethamine inhibits dengue virus and NS2B/3 proteinase cleavage like ARDP0006. (A) Chemical structures and (B) ROCS overlay of ARDP0006 and pyrimethamine. […] Compounds were added 1 h prior to infection, removed, and then readministered after removal of viral inoculum. Infectious virus in cell supernatant was quantified by plaque assay at 24 hpi (left y axis, black or red). Cell viability was measured at the same pyrimethamine doses 24 h posttreatment by WST-1 assay (right y axis, gray). Viral titer and cell viability were normalized to DMSO-treated samples. (D) Splenic titers of DENV2-infected AGB6 mice at 4 days postinfection. Mice were infected with 1 × 10^6 PFU DENV2 and treated twice daily with 20 mg/kg pyrimethamine (n = 9) or a vehicle control (n = 10). Data were analyzed by two-tailed unpaired t test. […] Reaction samples were obtained over a 45-min time course, separated by SDS-PAGE, and the fraction of uncleaved proteinase precursor remaining was determined as described previously ([23]). Data from three replicates were fit using single-phase exponential decay functions, and P value was determined by comparing the rate constant, K, of the models using the extra sum-of-squares F test. […]
Proteinase cleavage assays were performed as previously described ([23]). […] Protein quantification was performed using ImageQuant TL 8.1 software (GE Healthcare Life Sciences).

[4] = ref PubChem database, cited from earlier work; for LD50: single dose
BHK-21 and Huh7 cells = test: Cell viability by WST assay in uninfected cells (Table S1); assay type: cell-based; conditions: cell viability relative to vehicle at these doses
Experimental: as §1, with “The Tanimoto combo score of each hit during initial ROCS screening is indicated; higher Tanimoto combo scores are indicative of increased chemical similarity. Download Table S1, PDF file, 0.04 MB.” left out
Supplementary file : FIG S1 Initial screening of eliminated hit compounds for anti-dengue activity in tissue culture cells. […] Cell viability in uninfected cells in the presence of compounds for 48 h was measured by WST assay (gray). […]
Mock-infected wells were used to determine cell viability in the presence of chemical compounds compared to 1% DMSO vehicle control. Cell viability was determined using the WST-1 kit (Abcam) per the manufacturer’s instructions. […]

dengue viral RNA = test: Intracellular viral RNA quantification by qRT-PCR in infected Huh7 cells; assay type: cell-based, dengue virus; conditions: added 4 h postinfection at IC90 dose (5.6 μM ST-148, 0.66 μM niclosamide)
Experimental: (§2) (A) Chemical structures and (B) ROCS overlay of ST-148 and niclosamide. […] Compound addition, viral growth, and cytotoxicity assays were performed as described in the legend to Fig. 2C. (D) Virucidal activity of compounds at the concentrations indicated was measured after 60-min incubation of drugs with virus-containing solutions at 37°C. Viral titer was quantified by plaque assay on BHK-21 cells. n = 3. Statistical significance was evaluated by one-way ANOVA with Sidak’s multiple-comparison test and indicated as follows: *, P < 0.05; **, P < 0.01; ****, P < 0.0001; ns, not significant. […] On the left, cells were pretreated for 2 h prior to infection, compounds were removed during a 1-h infection at an MOI of 0.5 PFU/cell and then readministered after removal of viral inoculum. On the right, cells were similarly infected and compounds were first introduced 4 h after starting the infection. […] (F) To test the effect of ST-148 and niclosamide on viral RNA replication, Huh7 cells were infected for 1 h at an MOI of 0.5 PFU/cell. […] Intracellular RNA was collected at the time points indicated and quantified by qRT-PCR. […] N = 4, two-way ANOVA with Dunnett’s multiple-comparison test. […] After 4 h of infection, 10 μM ST-148 or 1 μM niclosamide was added; extracellular virus was collected at 24 hpi and quantified by plaque assay.

dengue virus [5] = test: Virucidal activity assay, 60-min incubation of drug with virus, plaque assay on BHK-21 cells; assay type: cell-based; conditions: 0.1 μM ST-148, 1 h at 37°C
Experimental: as §2
Compounds were diluted to 100× in DMSO, then further diluted 1:100 into phosphate-buffered saline (PBS) containing dengue virus to a final volume of 200 μl and mixed. Aliquots were taken for plaque assays immediately after addition of compounds (time [T] = 0 min) or after incubation at 37°C for 60 min (T = 60 min).

[6] = Dengue virus, Huh-7, DENV2-infected Huh7 cells

T1 sequence (P29990 1476-2093): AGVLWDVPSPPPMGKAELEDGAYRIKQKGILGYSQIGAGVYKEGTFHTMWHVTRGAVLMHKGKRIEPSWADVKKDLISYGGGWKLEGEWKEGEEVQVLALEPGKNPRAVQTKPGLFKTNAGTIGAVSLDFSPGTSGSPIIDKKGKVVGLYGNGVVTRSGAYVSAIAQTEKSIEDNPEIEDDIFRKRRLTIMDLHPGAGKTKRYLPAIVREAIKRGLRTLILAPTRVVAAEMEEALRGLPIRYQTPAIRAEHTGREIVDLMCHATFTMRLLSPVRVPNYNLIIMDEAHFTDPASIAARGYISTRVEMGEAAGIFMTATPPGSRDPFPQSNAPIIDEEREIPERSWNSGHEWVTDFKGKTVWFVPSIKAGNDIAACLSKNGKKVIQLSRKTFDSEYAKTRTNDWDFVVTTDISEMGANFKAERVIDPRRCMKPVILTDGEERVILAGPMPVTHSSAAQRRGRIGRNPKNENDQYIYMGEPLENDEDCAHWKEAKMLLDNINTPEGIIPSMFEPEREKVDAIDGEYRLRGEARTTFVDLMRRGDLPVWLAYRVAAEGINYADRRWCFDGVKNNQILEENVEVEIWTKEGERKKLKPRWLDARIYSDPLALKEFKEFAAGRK
T1 sequence (P29990 1346-1475): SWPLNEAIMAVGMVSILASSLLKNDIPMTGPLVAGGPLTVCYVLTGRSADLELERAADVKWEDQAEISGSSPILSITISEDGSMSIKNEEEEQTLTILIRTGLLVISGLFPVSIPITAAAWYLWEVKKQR

Compound	Splenic titer of dengue virus (DENV2 [1])	Splenic titer of dengue virus (DENV2 [1]; listed as pyrimethamine)	Mortality on sustained treatment (survival experiments) (DENV2 [1]; infected AGB6 mice, sustained pyrimethamine treatment)	Antiviral (dengue virus [2])	IC50 (DENV2 [3]; [6]) [nM]	Cleavage kinetics of NS2B/3/4A precursor (NS2B/3/4A)	Cleavage kinetics of NS2B/3/4A precursor (NS2B/3/4A; listed as pyrimethamine)	LD50 ([4]; IP) [mg/kg]	LD50 ([4]; Oral) [mg/kg]	Acute toxicity in words (Table S2) ([4]; healthy mice)	Toxicity (BHK-21 and Huh7 cells)	Viral RNA abundance (dengue viral RNA)	Virion production at increased dose after entry (DENV2 [3]; 10 μM ST-148 or 1 μM niclosamide added after 4 h of infection, extracellular virus at 24 hpi)	IC90 (DENV2 [3]; Dengue virus, Huh-7, DENV2-infected Huh7 cells, from dose-response curve fit, 24 hpi) [nM]	Viral titer on delayed addition of compound (DENV2 [3]; IC90 dose first added 4 h after infection, Huh7, 24 hpi)	Virucidal activity (viral infectivity after coincubation) (dengue virus [5])
CCc1nc(N)nc(N)c1-c1ccc(Cl)cc1 [Pyrimethamine, pyrimethamine]	significantly reduced viral splenic burden	reduced viral loads; also recorded: significant reduction in splenic titer	caused marked mortality	+++ (highly antiviral, with titer less than 5% of vehicle)	1200	inhibited intramolecular NS2B/3 cleavage	significantly slowed dengue virus NS2B/3 cleavage; also recorded: slowing proteinase cleavage in translation extracts	74	92	well tolerated	–	–	–	–	–	–
Nc1nc(N)c2nc(-c3ccccc3)c(N)nc2n1 [Triamterine]	–	–	–	+++ (highly antiviral, with titer less than 5% of vehicle)	–	–	–	–	–	–	+++ (high toxicity, with cell viability less than 60% of vehicle)	–	–	–	–	–
Nc1c(C(=O)Nc2nnc(-c3ccccc3)s2)sc2nc3c(cc12)CCCCC3 [ST-148]	–	–	–	–	380	–	–	–	–	–	–	no difference in viral RNA abundance	effective during later, postentry stages; also recorded: inhibited virion production	5600	eliminated the observed reduction of viral titer	significantly reduced viral infectivity
